Laboratory results reported in ChEMBL document CHEMBL1135191, “Novel cyclourethane-derived HIV protease inhibitors: a ring-closing olefin metathesis based strategy” (Bioorg Med Chem Lett, 2002).

Experiments:
[1] = target: Human immunodeficiency virus type 1 protease (Human immunodeficiency virus 1, UniProt Q72874); assay: Compound was tested for its inhibitory potency against human immunodeficiency virus -1 (HIV-1 protease)
[2] = test system: Human immunodeficiency virus 1; assay: Compound was tested for its antiviral potency against human immunodeficiency virus type 1; assay type: functional; conditions: read-out: ID50 (the source's name)
[3] = target: Human immunodeficiency virus type 1 protease (Human immunodeficiency virus 1) (UniProt Q72874)
MT4 = assay: Inhibitory activity against HIV-1 virus in MT-4 human T-lymphoid cells; assay type: functional; conditions: read-out: ID50 (the source's name)

| SMILES | Ki [1] | also measured |
| --- | --- | --- |
| O=C(NC(Cc1ccccc1)C(O)CN1CCCCCCCCCCC(c2ccccc2)OC1=O)O[C@H]1CO[C@H]2OCC[C@H]21 (some centres not stated) | 189 nM | – |
| O=C(NC(Cc1ccccc1)C(O)CN1CCCCCCCCC/C=C/CCOC1=O)O[C@H]1CO[C@H]2OCC[C@H]21 (some centres not stated) | 88 nM | – |
| CC1C/C=C/CCCCCCCCOC(=O)N(CC(O)C(Cc2ccccc2)NC(=O)O[C@H]2CO[C@H]3OCC[C@H]32)C1 (some centres not stated) | 11 nM | – |
| CC1CCCCCCCCCCCOC(=O)N1CC(O)C(Cc1ccccc1)NC(=O)O[C@H]1CO[C@H]2OCC[C@H]21 (some centres not stated) | 30 nM | – |
| O=C(NC(Cc1ccccc1)C(O)CN1C/C=C\CCCCCCCC(c2ccccc2)OC1=O)O[C@H]1CO[C@H]2OCC[C@H]21 (some centres not stated) | 229 nM | – |
| C=CCCCCCCCOC(=O)N(CC(C)CC=C)CC(O)C(Cc1ccccc1)NC(=O)O[C@H]1CO[C@H]2OCC[C@H]21 (some centres not stated) | > 1000 nM | – |
| C=CCCCCCCCC(OC(=O)N(CC=C)CC(O)C(Cc1ccccc1)NC(=O)O[C@H]1CO[C@H]2OCC[C@H]21)c1ccccc1 (some centres not stated) | > 1000 nM | – |
| CC(C)(C)NC(=O)[C@@H]1C[C@@H]2CCCC[C@@H]2CN1CC(O)C(Cc1ccccc1)NC(=O)O[C@H]1CO[C@H]2OCC[C@H]21 (some centres not stated) | 2 nM | IC50 [2]: 50 nM |
| CC1C/C=C\CCCCCCCCCOC(=O)N1CC(O)C(Cc1ccccc1)NC(=O)O[C@H]1CO[C@H]2OCC[C@H]21 (some centres not stated) | 53 nM | – |
| O=C(NC(Cc1ccccc1)C(O)CN1CCCCCCCCCCCC(c2ccccc2)OC1=O)O[C@H]1CO[C@H]2OCC[C@H]21 (some centres not stated) | 357 nM | – |
| O=C(NC(Cc1ccccc1)C(O)CN1CCCCCCCCCCCOC1=O)O[C@H]1CO[C@H]2OCC[C@H]21 (some centres not stated) | 80 nM | – |
| O=C(NC(Cc1ccccc1)C(O)CN1CCCCCCCCCCCCC(c2ccccc2)OC1=O)O[C@H]1CO[C@H]2OCC[C@H]21 (some centres not stated) | 268 nM | – |
| O=C(NC(Cc1ccccc1)C(O)CN1CCCCCCCCCCCCOC1=O)O[C@H]1CO[C@H]2OCC[C@H]21 (some centres not stated) | 14 nM | – |
| C=CCCCCCCCCN(CC(O)C(Cc1ccccc1)NC(=O)O[C@H]1CO[C@H]2OCC[C@H]21)C(=O)OC(CC=C)c1ccccc1 (some centres not stated) | > 1000 nM | – |
| CC(C)(C)NC(=O)[C@@H]1C[C@@H]2CCCC[C@@H]2CN1C[C@@H](O)[C@H](Cc1ccccc1)NC(=O)[C@H](CC(N)=O)NC(=O)c1ccc2ccccc2n1 | – | ID50 [3]: 18 nM |
| C=CCCCCCCCCN(CC(O)C(Cc1ccccc1)NC(=O)O[C@H]1CO[C@H]2OCC[C@H]21)C(=O)OCCC=C (some centres not stated) | > 1000 nM | – |
| O=C(NC(Cc1ccccc1)C(O)CN1C/C=C\CCCCCCCCOC1=O)O[C@H]1CO[C@H]2OCC[C@H]21 (some centres not stated) | 125 nM | – |
| O=C(NC(Cc1ccccc1)C(O)CN1CCCC/C=C/CCCCCCC(c2ccccc2)OC1=O)O[C@H]1CO[C@H]2OCC[C@H]21 (some centres not stated) | 162 nM | – |
| C=CCCCCCCCCOC(=O)N(CC(O)C(Cc1ccccc1)NC(=O)O[C@H]1CO[C@H]2OCC[C@H]21)C(C)CC=C (some centres not stated) | > 1000 nM | – |
| C=CCCCCCCCCOC(=O)N(CC=C)CC(O)C(Cc1ccccc1)NC(=O)O[C@H]1CO[C@H]2OCC[C@H]21 (some centres not stated) | > 1000 nM | – |
| CC1CCCCCCCCCCOC(=O)N(CC(O)C(Cc2ccccc2)NC(=O)O[C@H]2CO[C@H]3OCC[C@H]32)C1 (some centres not stated) | 6.1 nM | IC50 (MT4): 2500 nM |
| COc1ccc(S(=O)(=O)N(CC(C)C)CC(O)C(Cc2ccccc2)NC(=O)O[C@H]2CO[C@H]3OCC[C@H]32)cc1 (some centres not stated) | 0.015 nM | IC50 [2]: 1.4 nM |
| C=CCCCCCCC(OC(=O)N(CCCCC=C)CC(O)C(Cc1ccccc1)NC(=O)O[C@H]1CO[C@H]2OCC[C@H]21)c1ccccc1 (some centres not stated) | 444 nM | – |
| O=C(NC(Cc1ccccc1)C(O)CN1CCCCCCCCC/C=C/CC(c2ccccc2)OC1=O)O[C@H]1CO[C@H]2OCC[C@H]21 (some centres not stated) | 167 nM | – |
